Laboratory results published in paper PMC6934184, “Selective DNA-PKcs inhibition extends the therapeutic index of localized radiotherapy and chemotherapy” (The Journal of Clinical Investigation, 2019).

Target: T1, FLT1 (VEGFR1) (Homo sapiens, UniProt P17948)
T1 construct: purchased Thermo Fisher Scientific (Life Technologies) SelectScreen
Test: SelectScreen Z'LYTE
Type: biochemical
Procedure, shortened: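 Percent values come from Thermo SelectScreen profiling of NU5455, combining activity and binding assays. CSF1R was run in Z'LYTE format at Km app ATP, and CAMK1 in Adapta format with ATP listed at 10.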

T1 sequence (P17948 27-1338): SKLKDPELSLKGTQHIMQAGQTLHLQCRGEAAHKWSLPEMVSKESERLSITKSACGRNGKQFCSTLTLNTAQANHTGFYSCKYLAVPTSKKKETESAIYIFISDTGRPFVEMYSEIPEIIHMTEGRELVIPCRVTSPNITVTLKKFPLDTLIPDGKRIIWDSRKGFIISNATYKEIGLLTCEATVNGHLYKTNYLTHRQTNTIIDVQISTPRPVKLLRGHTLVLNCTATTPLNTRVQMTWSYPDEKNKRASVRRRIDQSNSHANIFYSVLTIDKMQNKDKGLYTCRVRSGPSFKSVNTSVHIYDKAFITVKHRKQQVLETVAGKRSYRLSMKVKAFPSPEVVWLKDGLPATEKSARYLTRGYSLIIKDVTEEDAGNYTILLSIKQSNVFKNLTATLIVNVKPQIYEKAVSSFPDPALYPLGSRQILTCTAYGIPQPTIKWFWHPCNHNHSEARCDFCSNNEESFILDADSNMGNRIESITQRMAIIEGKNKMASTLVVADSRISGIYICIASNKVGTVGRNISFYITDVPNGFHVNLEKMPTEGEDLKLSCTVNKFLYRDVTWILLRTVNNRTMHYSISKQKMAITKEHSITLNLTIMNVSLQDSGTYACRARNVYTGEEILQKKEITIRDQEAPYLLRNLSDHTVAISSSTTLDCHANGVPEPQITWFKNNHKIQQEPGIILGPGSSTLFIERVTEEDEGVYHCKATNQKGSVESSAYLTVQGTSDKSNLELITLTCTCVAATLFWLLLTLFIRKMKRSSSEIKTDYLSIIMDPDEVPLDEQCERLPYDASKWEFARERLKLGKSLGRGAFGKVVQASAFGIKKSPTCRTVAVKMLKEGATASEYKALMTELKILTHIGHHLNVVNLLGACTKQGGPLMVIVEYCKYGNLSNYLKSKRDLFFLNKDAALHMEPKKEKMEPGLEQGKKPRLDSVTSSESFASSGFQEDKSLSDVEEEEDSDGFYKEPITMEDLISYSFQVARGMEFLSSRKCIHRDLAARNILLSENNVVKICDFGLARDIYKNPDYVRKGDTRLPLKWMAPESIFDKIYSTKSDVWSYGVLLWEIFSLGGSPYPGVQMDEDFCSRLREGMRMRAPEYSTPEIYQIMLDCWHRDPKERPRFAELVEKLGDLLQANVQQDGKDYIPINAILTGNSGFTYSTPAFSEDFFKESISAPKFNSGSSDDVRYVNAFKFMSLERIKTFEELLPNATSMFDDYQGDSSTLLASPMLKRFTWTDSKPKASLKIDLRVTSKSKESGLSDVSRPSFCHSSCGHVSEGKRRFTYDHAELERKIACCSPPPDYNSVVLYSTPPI

Q: With `CN(C(=O)CN1CCOCC1)c1ccc2sc3c(-c4cccc5c(=O)cc(N6CC7CCC(C6)O7)oc45)cccc3c2c1` [NU5455] as the compound, how does the inhibition at 1 µM read?
A: Its inhibition at 1 µM is 6.5%.
